Experiments:
oat, wild = assay: Test C preemergence; assay type: in vivo, Avena fatua
From the text: (§1) Seeds of plant species selected from blackgrass (Alopecurus myosuroides), ryegrass, Italian (Italian ryegrass, Lolium multiflorum), wheat (winter wheat, Triticum aestivum), galium (catchweed bedstraw, Galium aparine), corn (Zea mays), crabgrass, large (large crabgrass, Digitaria sanguinalis), foxtail, giant (giant foxtail, Setaria faberii), johnsongrass (Sorghum halepense), lambsquarters (Chenopodium album), morningglory (Ipomoea coccinea), nutsedge, yellow (yellow nutsedge, Cyperus esculentus), pigweed (redroot pigweed, Amaranthus retroflexus), ragweed (common ragweed, Ambrosia elation), soybean (Glycine max), barnyardgrass (Echinochloa crus-galli), oilseed rape (Brassica napus), waterhemp (common waterhemp, Amaranthus rudis), oat, wild (wild oat, Avena fatua), kochia (Kochia scoparia), Surinam grass (Brachiaria decumbens), foxtail, green (green foxtail, Setaria viridis), goosegrass (Eleusine indica), bromegrass, downy (downy bromegrass, Bromus tectorum), nightshade (eastern black nightshade, Solanum ptycanthum), cocklebur (common cocklebur, Xanthium strumarium), cupgrass, woolly (woolly cupgrass, Eriochloa villosa), bermudagrass (Cynodon dactylon), sunflower, (common oilseed sunflower, Helianthus annuus), Russian thistle (Salsola kali), and velvetleaf (Abutilon theophrasti) were planted into a blend of loam soil and sand and treated preemergence with test chemicals formulated in a non-phytotoxic solvent mixture which included a surfactant.
(§2) At the same time, plants selected from these crop and weed species and also chickweed (common chickweed, Stellaria media), canarygrass (littleseed canarygrass, Phalaris minor), and deadnettle (henbit deadnettle, Lamium amplexicaule), were planted in pots containing Redi-Earth® planting medium (Scotts Company, 14111 Scottslawn Road, Marysville, Ohio 43041) comprising spaghnum peat moss, vermiculite, wetting agent and starter nutrients and treated with postemergence applications of test chemicals formulated in the same manner. Plants ranged in height from 2 to 18 cm (1- to 4-leaf stage) for postemergence treatments. Treated plants and controls were maintained in a greenhouse for 13 to 15 days, after which time all species were compared to controls and visually evaluated. Plant response ratings, summarized in Table C, are based on a scale of 0 to 100 where 0 is no effect and 100 is complete control. A dash (-) response means no test result.

cupgrass, woolly = assay: Test C preemergence; assay type: in vivo, Eriochloa villosa; details: for Cupgrass, Woolly plant response rating: preemergence
From the text: as §1, §2

bermudagrass = assay: Test C preemergence; assay type: in vivo, Cynodon dactylon
From the text: as §1, §2

windgrass [1] = assay: Test C postemergence; assay type: in vivo, Apera spica-venti; details: 250 g ai/ha, scale 0 to 100 (0 no effect, 100 complete control)
windgrass [2] = assay: Test C postemergence; assay type: in vivo, Apera spica-venti; details: 125 g ai/ha, scale 0 to 100, 0 no effect, 100 complete control
windgrass [3] = assay: Test C postemergence; assay type: in vivo, Apera spica-venti; details: 62 g ai/ha, scale 0 to 100
[4] = preemergence, 31 g ai/ha, scale 0 to 100 (0 no effect, 100 complete control), 13 to 15 days
[5] = preemergence, 62 g ai/ha, 13 to 15 days, scale 0 to 100, 0 = no effect, 100 = complete control
[6] = preemergence, 125 g ai/ha, scale 0 to 100, 0 is no effect, 100 is complete control

Cc1cc(C(=O)NCC(F)(F)F)nn1Cc1ccnc(C(F)(F)F)c1 [Compound 74]
Plant response rating (scale of 0 to 100), Oat, Wild (oat, wild; Preemergence, 250 g ai/ha): 95
Oat, Wild plant response rating (oat, wild; [4]): 0
Plant response rating, Oat, Wild (oat, wild; [5]): 40
Oat, Wild plant response rating (oat, wild; [6]): 85
Plant response rating (scale of 0 to 100), Cupgrass, Woolly (cupgrass, woolly; Preemergence, 250 g ai/ha): 98
Cupgrass, Woolly plant response rating (cupgrass, woolly; 31 g ai/ha, scale 0 to 100 (0 no effect, 100 complete control), 13 to 15 days): 65
Cupgrass, Woolly plant response rating (cupgrass, woolly; 125 g ai/ha, scale 0 to 100, 0 is no effect, 100 is complete control): 98
Plant response rating (scale of 0 to 100), Bermudagrass (bermudagrass; Preemergence, 250 g ai/ha): 98
Bermudagrass plant response rating (bermudagrass; [4]): 50
Plant response rating, Bermudagrass (bermudagrass; [5]): 90
Bermudagrass plant response rating (bermudagrass; [6]): 98
Plant response rating, Windgrass (windgrass [1]): 5
Plant response rating, Windgrass (windgrass [2]): 0
Windgrass plant response rating (windgrass [3]): 0
